In patent US9309179B2 (FAB PHARMA S.A.S., priority 2006, dated 2016):
Converted amounts (≈) assume the structure as drawn. Counter-ions that a name gives are not always drawn. Like-named read-outs stand apart in the source and are kept apart here.

Columns and labels:
S. aureus NEM14157 = assay: MIC, broth microdilution; assay type: cell-based; conditions: Staphylococcus aureus, read-out: MIC S. aureus NEM14157
Experimental: (§1) The compounds of the present invention are useful antibacterial agents having a selective spectrum of activity in vitro against standard bacterial strains which are used to screen for activity against pathogenic bacteria. […] The activity is presented as Minimum Inhibitory Concentration (MIC) expressed in μg/ml.
(§2) Whole-cell antimicrobial activity was determined by broth microdilution method in microtiterplates. The compound was tested in serial 4-fold dilutions ranging from 0.06 to 64 mcg/mL. Test organisms were selected from the following laboratory strains: Staphylococcus aureus CIP 76.25, Staphylococcus aureus BAA39 MDR, Staphylococcus aureus NEM 14157 PeniR, Staphylococcus aureus CIP 54.146, Escherichia coli CIP 76.24. Bacteria were tested in Tryptic Soy (TS) or Mueller Hinton (MH) broth using an inoculum of 10^4 to 10^6 UFC/mL incubated at 37° C. for 20 h.
(§3) The minimum inhibitory concentration (MIC) was determined as the lowest concentration of compound at which no visible bacteria growth is observed (90% inhibition of absorbance of at […].)

S. aureus CIP 76.25 = assay: MIC, broth microdilution; assay type: cell-based; conditions: Staphylococcus aureus, read-out: MIC S. aureus CIP 76.25
Experimental: as §1, §2, §3

E. coli CIP 76.24 = assay: MIC, broth microdilution; assay type: cell-based; conditions: Escherichia coli, read-out: MIC E. coli CIP 76.24
Experimental: as §1, §2, §3

S. aureus BAA39MDR = assay: MIC, broth microdilution; assay type: cell-based; conditions: Staphylococcus aureus, 20 h, read-out: MIC S. aureus BAA39MDR
Experimental: as §1, §2, §3

[1] = molecular target: T1, recombinant E. coli FabI enzyme (Escherichia coli, UniProt P0AEK4); assay: FabI inhibition, fluorescence-based NADH assay; assay type: biochemical
T1 construct: 6-His (C); made in house; host or cells: prokaryotic expression vector
T1 sequence (P0AEK4 whole entry): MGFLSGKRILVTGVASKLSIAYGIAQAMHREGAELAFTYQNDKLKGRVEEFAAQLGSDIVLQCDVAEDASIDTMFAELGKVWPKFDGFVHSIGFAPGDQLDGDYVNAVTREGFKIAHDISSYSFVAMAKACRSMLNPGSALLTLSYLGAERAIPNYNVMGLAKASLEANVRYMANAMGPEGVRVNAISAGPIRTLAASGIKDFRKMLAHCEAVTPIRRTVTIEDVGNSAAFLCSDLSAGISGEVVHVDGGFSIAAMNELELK
Experimental: Compound inhibitory activity of FabI enzyme is measured in vitro by the IC50 determination using a fluorescent based assay.
The protein FabI from E. coli is prepared and purified using standard methods for recombinant protein expression after cloning of the gene in a prokaryotic expression vector.
The biochemical activity of the FabI enzyme is assessed using the following method.
The assay buffer “AB” contains 50 mM Hepes pH7.5, 100 μM Dithiothreitol, 0.006% Triton-X100. The following components are added in a black polystyrene Costar plate up to a final volume of 55 μL: 1.5 μL DMSO, or inhibitor dissolved in DMSO and 53.5 μL of a FabI/NADH/NAD+ mixture in AB. After 60 min of pre-incubation at room temperature, the reaction is started by addition of 5 μL of Crotonoyl-CoA to a final volume of 60 μL. This reaction mixture is then composed of 40 nM FabI (produced in house from E. coli, C-terminal 6-His tagged), 20 μM NADH (Biochemika), 10 μM NAD+ (Biochemika), 50 μM Crotonoyl-CoA (Biochemika) and compound at defined concentration. Fluorescence intensity of NADH (lex=360 nm, lem=520 nm) is measured immediately after Crotonoyl-CoA addition, and 2 hours later by a Fluostar Optima (BMG). Enzyme activity is proportional to the signal decrease from which inhibition percentages are derived. For IC50 determinations, the inhibitor is tested at 6 to 10 different concentrations, and the related inhibitions are fitted to a classical langmuir equilibrium model using XLFIT (IDBS).
In Vitro Inhibition of Recombinant E. coli FabI Enzyme by Selected Compounds of Formula (I).

[2] = NEM14157, broth microdilution, 37° C., 20 h
[3] = CIP76, broth microdilution, 37° C., 20 h
[4] = recombinant E. coli FabI 40 nM, 60 min pre-incubation, NADH fluorescence, read-out: IC50

| SMILES | MIC (S. aureus NEM14157; [2]) | MIC (S. aureus CIP 76.25; [3]) | MIC (E. coli CIP 76.24; [3]) | MIC (S. aureus BAA39MDR; broth microdilution, 37° C.) | further results |
| --- | --- | --- | --- | --- | --- |
| CCCc1ccc(Oc2nc(Cl)ccc2N)c(O)c1 [Example 1, 2-[(3-amino-6-chloropyridin-2-yl)oxy]-5-propylphenol] | 0.25 µg/mL (≈ 0.897 µM) | 1 µg/mL (≈ 3.59 µM) | 16 µg/mL (≈ 57.4 µM) | 1 µg/mL (≈ 3.59 µM) | – |
| CCc1ccc(Oc2cccc(F)n2)c(O)c1 [Example 3, 5-ethyl-2-[(6-fluoropyridin-2-yl)oxy]phenol] | 0.25 µg/mL (≈ 1.07 µM) | 0.25 µg/mL (≈ 1.07 µM) | 4 µg/mL (≈ 17.1 µM) | 0.25 µg/mL (≈ 1.07 µM) | – |
| CCCc1ccc(Oc2cccc(F)n2)c(O)c1 [Example 5, 2-[(6-fluoropyridin-2-yl)oxy]-5-propylphenol] | 0.25 µg/mL (≈ 1.01 µM) | 0.25 µg/mL (≈ 1.01 µM) | 4 µg/mL (≈ 16.2 µM) | 0.25 µg/mL (≈ 1.01 µM) | IC50 [1, 4]: 970 nM |
| CCCc1ccc(Oc2cccc(Cl)n2)c(O)c1 [Example 6, 2-[(6-chloropyridin-2-yl)oxy]-5-propylphenol] | 1 µg/mL (≈ 3.79 µM) | 1 µg/mL (≈ 3.79 µM) | 16 µg/mL (≈ 60.7 µM) | 1 µg/mL (≈ 3.79 µM) | – |
| CCCc1ccc(Oc2cccc(N)n2)c(O)c1 [Example 7, 2-[(6-aminopyridin-2-yl)oxy]-5-propylphenol] | – | 2 µg/mL (≈ 8.19 µM) | > 16 µg/mL | – | – |
| CCCc1ccc(Oc2ccc(OC)cc2)c(O)c1 [Example 16, 2-(4-methoxyphenoxy)-5-propylphenol] | 0.25 µg/mL (≈ 0.968 µM) | 0.25 µg/mL (≈ 0.968 µM) | 4 µg/mL (≈ 15.5 µM) | 0.25 µg/mL (≈ 0.968 µM) | IC50 [1]: 510 nM |
| CCCc1ccc(Oc2cc(F)cc(F)n2)c(O)c1 [Example 25A, 2-[(4,6-difluoropyridin-2-yl)oxy]-5-propylphenol] | – | 0.25 µg/mL (≈ 0.942 µM) | 16 µg/mL (≈ 60.3 µM) | – | – |
| Oc1cc(C(F)=C(F)F)ccc1Oc1cccc(F)n1 [Example 28, 2-[(6-fluoropyridin-2-yl)oxy]-5-(trifluorovinyl) phenol] | – | – | – | – | IC50 [1, 4]: 850 nM |
| Oc1cc(Cn2cncn2)ccc1Oc1cccc(F)n1 [Example 32, 2-[(6-fluoropyridin-2-yl)oxy]-5-(1H-1,2,4-triazol-1-ylmethyl)phenol] | – | 4 µg/mL (≈ 14 µM) | 16 µg/mL (≈ 55.9 µM) | – | – |
| CCc1ccc(Oc2ccccc2N)c(O)c1 [Example 34, 2-(2-aminophenoxy)-5-ethylphenol] | 0.25 µg/mL (≈ 1.09 µM) | 0.25 µg/mL (≈ 1.09 µM) | 1 µg/mL (≈ 4.36 µM) | 0.25 µg/mL (≈ 1.09 µM) | – |
| CCc1ccc(Oc2ccc(OCCCN3C(=O)c4ccccc4C3=O)cc2F)c(O)c1 [Example 38, 2-{3-[4-(4-Ethyl-2-hydroxy-phenoxy)-3-fluoro-phenoxy]-propyl}-isoindole-1,3-dione] | 1 µg/mL (≈ 2.3 µM) | 0.062 µg/mL (≈ 0.142 µM) | 4 µg/mL (≈ 9.19 µM) | 0.25 µg/mL (≈ 0.574 µM) | – |
| CCc1ccc(Oc2ccc(OCCCN)cc2F)c(O)c1 [Example 39, 2-[4-(3-aminopropoxy)-2-fluorophenoxy]-5-ethyl phenol] | – | – | – | – | MIC (S. aureus NEM14157; NEM14157, 20 h): 1 µg/mL (≈ 3.27 µM); MIC (S. aureus CIP 76.25; CIP76, 20 h): 1 µg/mL (≈ 3.27 µM); MIC (E. coli CIP 76.24; CIP76, 20 h): 16 µg/mL (≈ 52.4 µM); MIC (S. aureus BAA39MDR): 1 µg/mL (≈ 3.27 µM) |
| CCc1ccc(Oc2ccc(S(C)(=O)=O)cc2)c(O)c1 [Example 47, 5-ethyl-2-[4-(methylsulfonyl)phenoxy]phenol] | – | 0.25 µg/mL (≈ 0.855 µM) | 16 µg/mL (≈ 54.7 µM) | – | – |
| CCc1ccc(Oc2cc(F)ccc2N)c(O)c1 [Example 50, 2-(2-amino-5-fluorophenoxy)-5-ethylphenol] | – | – | – | – | IC50 [1, 4]: 300 nM |
| CCc1ccc(Oc2ccc(NS(=O)(=O)C3CC3)cc2F)c(O)c1 [Example 52, N-[4-(4-ethyl-2-hydroxyphenoxy)-3-fluorophenyl]cyclopropane sulfonamide] | – | 1 µg/mL (≈ 2.85 µM) | 16 µg/mL (≈ 45.5 µM) | – | – |
| CCCc1ccc(Oc2cccnc2N)c(O)c1 [Example 55, 2-(2-Aminopyridin-3-yloxy)-5-propylphenol] | – | 0.25 µg/mL (≈ 1.02 µM) | 1 µg/mL (≈ 4.09 µM) | – | IC50 [1]: 92 nM |
| CCc1cc(O)c(Oc2cccc(F)n2)cc1F [Example 57] | – | 0.25 µg/mL (≈ 0.995 µM) | 4 µg/mL (≈ 15.9 µM) | – | IC50 [1]: 1100 nM |
| CCc1cc(O)c(Oc2ccc(N)cc2)cc1F [Example 62, 2-(4-aminophenoxy)-5-ethyl-4-fluorophenol] | – | 0.25 µg/mL (≈ 1.01 µM) | 4 µg/mL (≈ 16.2 µM) | – | – |
| CCc1ccc(Oc2ccc(S(N)(=O)=O)cc2F)c(O)c1 [Example 65, 4-(4-ethyl-2-hydroxyphenoxy)-3-fluorobenzene sulfonamide] | – | 0.25 µg/mL (≈ 0.803 µM) | 1 µg/mL (≈ 3.21 µM) | – | – |
| CCc1ccc(Oc2ccc(NCc3cccnc3)cc2F)c(O)c1 [Example 66, 5-ethyl-2-{2-fluoro-4-[(pyridin-3-ylmethyl)amino]phenoxy}phenol] | – | 0.25 µg/mL (≈ 0.739 µM) | 16 µg/mL (≈ 47.3 µM) | – | – |
| CCc1ccc(Oc2ccc(S(=O)(=O)NCCO)cc2F)c(O)c1 [Example 67, 4-(4-ethyl-2-hydroxyphenoxy)-3-fluoro-N-(2-hydroxyethyl)benzenesulfonamide] | – | 0.25 µg/mL (≈ 0.703 µM) | 16 µg/mL (≈ 45 µM) | – | – |
| CCc1ccc(Oc2ccc(S(=O)(=O)NCCNC(C)=O)cc2F)c(O)c1 [Example 70, N-{2-[4-(4-Ethyl-2-hydroxy-phenoxy)-3-fluoro-benzenesulfonylamino]-ethyl}-acetamide] | – | 0.25 µg/mL (≈ 0.631 µM) | 16 µg/mL (≈ 40.4 µM) | – | – |
| CCc1ccc(Oc2ccc(OCCCC(=O)O)cc2F)c(O)c1 [Example 74, 4-[4-(4-Ethyl-2-hydroxy-phenoxy)-3-fluoro-phenoxy]-butyric acid] | 0.062 µg/mL (≈ 0.185 µM) | 0.062 µg/mL (≈ 0.185 µM) | 4 µg/mL (≈ 12 µM) | 0.062 µg/mL (≈ 0.185 µM) | – |
| CCc1ccc(Oc2ccc(NCCCNS(C)(=O)=O)cc2F)c(O)c1 [Example 79, N-methanesulfonyl-N-1-[4-(4-ethyl-2-hydroxyphenoxy)-3-fluorophenyl]propan-1,3-diamine] | 0.25 µg/mL (≈ 0.654 µM) | 0.25 µg/mL (≈ 0.654 µM) | 16 µg/mL (≈ 41.8 µM) | 0.25 µg/mL (≈ 0.654 µM) | – |
| CCc1ccc(Oc2ccc(NCCO)cc2F)c(O)c1 [Example 81, 5-Ethyl-2-[2-fluoro-4-(2-hydroxyethylamino)-phenoxy]phenol] | – | 0.25 µg/mL (≈ 0.858 µM) | 4 µg/mL (≈ 13.7 µM) | – | – |
| CCCNc1ccc(Oc2ccc(CC)cc2O)c(F)c1 [Example 82, 5-ethyl-2-[2-fluoro-4-(propylamino)phenoxy]phenol] | – | 0.25 µg/mL (≈ 0.864 µM) | 16 µg/mL (≈ 55.3 µM) | – | – |
| CCc1ccc(Oc2ccc(C(C)=O)cc2F)c(OC(=O)CN)c1 [Example 85, acetate hydrochloride] | – | – | – | – | MIC (S. aureus CIP 76.25; CIP76, 20 h): 0.062 µg/mL; MIC (E. coli CIP 76.24; CIP76, 20 h): 1 µg/mL; IC50 [1, 4]: 110 nM |
| CCc1ccc(Oc2ccc(C(=O)CCCO)cc2)c(O)c1 [Example 86, 1-[4-(4-ethyl-2-hydroxyphenoxy)phenyl]-4-hydroxy butan-1-one] | 0.062 µg/mL (≈ 0.206 µM) | 0.062 µg/mL (≈ 0.206 µM) | 4 µg/mL (≈ 13.3 µM) | 0.062 µg/mL (≈ 0.206 µM) | – |
| Oc1cc(Cl)ccc1Oc1ccc(Cl)cc1Cl [Triclosan, 5-chloro-2-(2,4-dichloro-phenoxy)-phenol, reference compound] | – | – | – | – | MIC (S. aureus CIP 76.25; CIP76, 20 h): 0.125 µg/mL (≈ 0.432 µM); MIC (E. coli CIP 76.24; CIP76, 20 h): 0.25 µg/mL (≈ 0.863 µM) |
